The subject of data set [1] is TNF-α. As to the kind of experiment: LPS induced TNF-α secretion in THP-1 monocytes, dose dependence (ELISA). In kind it is cell-based, human. As to conditions: THP-1, LPS 250 ng/ml, 100, 50, 10 and 1 μM, 24 hr. How it is done: To confirm whether the inhibitory effect of RSCL-0409 is dose-dependent, the present invention has studied the ability of RSCL-0409 to inhibit TNF-α secretion from LPS (250 ng/ml) induced THP-1 monocytes (FIG. 2a).
THP-1, 2×10^5 cells/well was plated in 96-well plate. The cells were pretreated with RSCL-0409 at various concentrations (100 μM, 50 μM, 10 μM and 1 μM) 1 hr prior to LPS stimulation. As a control group, cells were treated with LPS alone and cells treated with RSCL-0409 alone were used. TNF-α secretion was estimated in the culture supernatants following 24 hr LPS stimulation using Duoset ELISA detection Kit (R&D systems, MN, USA). *P<0.05, ***P<0.001 values are comparisons for LPS treated vs. RSCL-0409 treated, NS indicates not significant.
In general terms: An ELISA detects its analyte on a solid surface through an enzyme-linked reagent.

Data set [2] concerns NEMO and IκB-α. The data set is described as follows: Immunoblot of NEMO and IκB-α in LPS stimulated THP-1 cells. In kind it is cell-based, human. The settings on record: THP-1, LPS 250 ng/ml. On the procedure: NF-κB/IκB complexes are present in the cytoplasm under unstimulated conditions. Following stimulation with LPS, we see phosphorylation and subsequent degradation of IκB allowing the free NF-κB to translocate into the nucleus to activate genes with NF-κB binding regions. Therefore, the effect of RSCL-0409 on blocking of NF-κB nuclear translocation was checked. Serum-starved THP-1 cells were stimulated with LPS (250 ng/ml) for the indicated time (FIG. 7a) in the presence and absence of RSCL-0409 ([…]). RSCL-0409 treatment was 1 hr prior to LPS treatment. Total protein was isolated from the treated cells, and an equal amount of protein from each sample was used for immunoblots to determine protein levels of NEMO and IκB-α. The blot was stripped and reprobed with an anti-ERK-1/2 antibody to ensure equal loading. […] This leads to inhibition of phosphorylation and further blocking p65 dissociation from IκB-α.
For orientation: In western blotting, separated proteins are transferred to a membrane and probed.

The subject of data set [3] is TNF-α. As to the kind of experiment: TNF response to increasing concentration of LPS in THP-1 cells. In kind it is cell-based, human. The settings on record: LPS 1000 ng/ml. On the procedure: The present invention has also conducted experiments to check the ability of RSCL-0409 to inhibit LPS induced TNF-α secretion from THP-1 cells, wherein the studies involved the stimulation of THP-1 cells with increasing concentrations of LPS (62.5 ng/ml to 1000 ng/ml) with and without pre-treatment of cells with different concentrations of RSCL-0409.

Data set [4] is described as follows: Cell viability in pre-screen (Table 1). In kind it is cell-based.
For data set [5], the system named is Balb/c mice. The data set is described as follows: LPS induced TNF-α release in Balb/c mice, pre-treatment. Type of data set: in vivo. As to conditions: 1 hr post LPS. On the procedure:
The present invention has studied the ability of RSCL-0409 to exert protection against inflammatory agents in a mice (Balb/c) model. Balb/c (5-6 weeks) mice were injected with LPS (225 μg) intraperitoneally with and without pretreatment of three concentrations of RSCL-0409 (10 mg/kg, 20 mg/kg and 40 mg/kg). The compound was injected intraperitoneally 30 min before LPS treatment. The mice were monitored for 1 hr post LPS treatment. RSCL-0409 injected alone served as negative control. Blood collection was done retro-orbitally under anesthesia, 1 hr post LPS injection. Serum collected after cells were allowed to settle was analysed for TNF-α secretion.

The subject of data set [6] is TNF. The data set is described as follows: Pre-screen for TNF inhibition activity of synthesized molecules (Table 1). Type of data set: cell-based.
Data set [7] relates to ICAM-1, COX-2, IL-1β and IL-8 genes. The data set is described as follows: mRNA expression of pro-inflammatory genes in THP-1 cells. Type of data set: cell-based, human. The settings on record: THP-1, LPS 250 ng/ml. On the procedure:
The inhibitory effect of the present invention, RSCL-0409 on mRNA was checked on pro-inflammatory genes like intercellular adhesion molecule1 (ICAM-1), cyclooxygenase 2 (COX-2), IL-1β and IL-8. THP-1 cells (3×10^6 cells) were seeded in a 6-well dish. The cells were treated with RSCL-0409 ([…]) for 1 hr followed by incubation with or without 250 ng/ml of LPS. After two washes with ice-cold PBS, the cells were harvested and total cellular RNA was isolated using TRIZOL Reagent (Invitrogen) according to the manufacturer's instructions. cDNA synthesis was done using high capacity cDNA reverse transcription kit (ABI systems). Amplification of ICAM-1, COX-2, IL-1β and IL-8 genes from the cDNA was carried out using the respective gene specific primers.

The test system of data set [8] is TNF-α. As to the kind of experiment: LPS induced TNF-α release in human PBMC. In kind it is cell-based. The settings on record: PBMC isolated from human blood. An excerpt:
In order to evaluate the ability of RSCL-0409 to inhibit LPS induced TNF-α secretion in a physiological scenario, the present invention has tested the same in PBMC isolated from human blood (FIG. 3). […] The TNF levels were not detectable in PBMCs without LPS and with RSCL-0409 treatment alone, indicating its specificity in LPS induced TNF-α through a TLR mediated process. ***P<0.001 value is for LPS treated vs. RSCL-0409 treated.

The subject of data set [9] is THP-1 cells. The data set is described as follows: MTT toxicity assay in THP-1 cells. Type of data set: cell-based, human. From the text: The toxicity of RSCL-0409 (FIG. 2b) was also by treating cells with RSCL-0409 by MTT assay. […] The viability of the cells (analyzed in tandem by MTT) was not affected by RSCL-0409 indicating its non-toxic nature.
(In general: Formazan colour is commonly taken as a measure of viable cells.)

In the case of `COc1ccc(OC2OC3COC(c4ccccc4)OC3C(OC3OC(COC(=O)CCC(C)=O)C(OC(=O)CCl)C(OC(C)=O)C3OC(C)=O)C2NC(=O)C(Cl)(Cl)Cl)cc1` [RSCL-0409, p-Methoxy phenyl-O-(2,3-di-O-acetyl-4-O-chloroacetyl-6-O-levulinoyl-β-D-glucopyranosyl)-(1-3)-2-deoxy-2-trichloroacetamido-4,6-O-benzylidene-α-D-glucopyranoside], the “LPS induced TNF-α secretion” value is “inhibited by RSCL-0409 in a concentration dependent manner” in data set [1] and “inhibitory effects similar to that seen in THP-1 cells” in data set [8]. Also, the “activation of NEMO” value in data set [2] is listed as “blocked signaling to NEMO”. The “degradation of IκB-α” value in data set [2] was “accumulation of IκB-α”. Further, the “concentration inhibiting LPS induced TNF-α secretion (as low as)” value in [3] amounted to 10 µM. Also, the “% Viability” value in [4] (1 uM) came out at 108%; in data set [4] (10 uM), 112%; in data set [4] (50 uM), 114%; in data set [4] (100 uM), 113%. Also, the “reduction of serum TNF production” value in data set [5] (10 mg/kg i.p. 30 min before LPS (225 μg i.p.)) is about 53%; in data set [5] (20 mg/kg i.p. 30 min before LPS (225 μg i.p.)), about 64%; in data set [5] (40 mg/kg i.p. 30 min before LPS (225 μg i.p.)) it was about 67%. The “% TNF Inhibition” value in data set [6] (1 uM) worked out at 0%; in data set [6] (10 uM), 32%; in data set [6] (50 uM), 81%; in [6] (100 uM) it was 91%. Further, the “mRNA expression of ICAM-1, COX-2, IL-1β and IL-8” value in data set [7] is “inhibited mRNA expression levels of the tested genes”. Besides, the “viability of the cells (MTT)” value in data set [9] is recorded as “not affected”.
